Assay results as given in US20240132484A1, “BROAD SPECTRUM ANTIVIRAL COMPOUNDS TARGETING THE SKI COMPLEX” (priority 2020, published 2024).
Several values for one entry are separate records, joined by “and”; a condition that tells them apart may be missing. Identical values can stand only once. Like-named read-outs stand apart in the source and are kept apart here.

What was measured:
SARS2 = type: cell-based, SARS-CoV-2; settings: for Percentage Infection Relative to Appropriate DMSO Control: avg background subtraction; for Percentage Inhibition Average 1 μM / Screening data (Relative infection to DMSO controls) Average 1 μM: SARS2, 1 μM; for Screening data (Relative infection to DMSO controls) Average 1 μM / Screening data (Relative infection to DMSO controls) Average 5 μM / Screening data (Relative infection to DMSO controls) Average 10 μM / Screening data (Relative infection to DMSO controls) Average 25 μM / Screening data (Relative infection to DMSO controls) Average 50 μM / Average (relative infection to DMSO over the 5 tested concentrations): 100=DMSO control; for Percentage Inhibition Average 5 μM / Screening data (Relative infection to DMSO controls) Average 5 μM: SARS2, 5 μM; for Percentage Inhibition Average 10 μM / Screening data (Relative infection to DMSO controls) Average 10 μM: SARS2, 10 μM; for Percentage Inhibition Average 25 μM / Screening data (Relative infection to DMSO controls) Average 25 μM: SARS2, 25 μM; for Percentage Inhibition Average 50 μM / Screening data (Relative infection to DMSO controls) Average 50 μM: SARS2, 50 μM; for Average (relative infection to DMSO over the 5 tested concentrations): SARS2, average over 1 to 50 uM
cells (nuclei count) = settings: for Relative cell count to DMSO controls, Average 1 μM / Relative cell count to DMSO controls, Average 5 μM / Relative cell count to DMSO controls, Average 10 μM / Relative cell count to DMSO controls, Average 25 μM / Relative cell count to DMSO controls, Average 50 μM: toxicity data, 100=DMSO control; for Relative cell count to DMSO controls, Average (for correlation analysis): average value over the 5 tested concentrations (1 to 50 uM)

Cc1ccc(CN(CCN(C)C)Cc2cc(C#CCO)cs2)s1 [SILCS1]
Percentage Infection Relative to Appropriate DMSO Control (SARS2; 1 uM, Exp 1 (SMW454), single wells): 99.35% and 98.10% and 99.72%
Percentage Infection Relative to Appropriate DMSO Control (SARS2; 5 uM, Exp 1 (SMW454), single wells): 112.30% and 117.54% and 117.35%
Percentage Infection Relative to Appropriate DMSO Control (SARS2; 10 uM, Exp 1 (SMW454), single wells): 107.68% and 118.84% and 98.07%
Percentage Infection Relative to Appropriate DMSO Control (SARS2; 25 uM, Exp 1 (SMW454), single wells): 103.38% and 104.01% and 105.61%
Percentage Infection Relative to Appropriate DMSO Control (SARS2; 50 uM, Exp 1 (SMW454), single wells): 103.48% and 93.04% and 95.93%
Infection Data, Average, Mean (SARS2; Average of Exp 1-3, n 9, 1 uM): 122.42%
Infection Data, Average, Mean (SARS2; Average of Exp 1-3, n 9, 5 uM): 119.79%
Infection Data, Average, Mean (SARS2; Average of Exp 1-3, n 9, 10 uM): 100.52%
Infection Data, Average, Mean (SARS2; Average of Exp 1-3, n 9, 25 uM): 61.83%
Infection Data, Average, Mean (SARS2; Average of Exp 1-3, n 9, 50 uM): 43.32%
Percentage Infection Relative to Appropriate DMSO Control (SARS2; Exp 2 (SMW466), 1 uM): 148.68% and 144.39% and 143.85%
Percentage Infection Relative to Appropriate DMSO Control (SARS2; Exp 2 (SMW466), 5 uM): 114.43% and 126.13% and 128.85%
Percentage Infection Relative to Appropriate DMSO Control (SARS2; Exp 2 (SMW466), 10 uM): 102.74% and 102.52% and 110.68%
Percentage Infection Relative to Appropriate DMSO Control (SARS2; Exp 2 (SMW466), 25 uM): 28.51% and 36.47% and 30.25%
Percentage Infection Relative to Appropriate DMSO Control (SARS2; Exp 3 (SMW480), 1 uM): 128.15% and 110.09% and 129.44%
Percentage Infection Relative to Appropriate DMSO Control (SARS2; Exp 3 (SMW480), 5 uM): 127.64% and 114.03% and 119.89%
Percentage Infection Relative to Appropriate DMSO Control (SARS2; Exp 3 (SMW480), 10 uM): 73.36% and 110.69% and 80.10%
Percentage Infection Relative to Appropriate DMSO Control (SARS2; Exp 3 (SMW480), 25 uM): 55.94% and 38.83% and 53.44%
Percentage Infection Relative to Appropriate DMSO Control (SARS2; Exp 3 (SMW480), 50 uM): 27.26% and 20.30% and 23.61%
Percentage Inhibition Average 1 μM (SARS2): −22.42%
Screening data (Relative infection to DMSO controls) Average 1 μM (SARS2): 122.42
Percentage Inhibition Average 5 μM (SARS2): −19.79%
Screening data (Relative infection to DMSO controls) Average 5 μM (SARS2): 119.79
Percentage Inhibition Average 10 μM (SARS2): −0.52%
Screening data (Relative infection to DMSO controls) Average 10 μM (SARS2): 100.52
Percentage Inhibition Average 25 μM (SARS2): 38.17%
Screening data (Relative infection to DMSO controls) Average 25 μM (SARS2): 61.83
Percentage Inhibition Average 50 μM (SARS2): 56.68%
Screening data (Relative infection to DMSO controls) Average 50 μM (SARS2): 43.32
Average (relative infection to DMSO over the 5 tested concentrations) (SARS2): 89.58
Relative cell count to DMSO controls, Average 1 μM (cells (nuclei count)): 98.82
Relative cell count to DMSO controls, Average 5 μM (cells (nuclei count)): 99.54
Relative cell count to DMSO controls, Average 10 μM (cells (nuclei count)): 108.52
Relative cell count to DMSO controls, Average 25 μM (cells (nuclei count)): 116.28
Relative cell count to DMSO controls, Average 50 μM (cells (nuclei count)): 84.14
Toxicity Data, Average, Mean (cells (nuclei count); Average of Exp 1-3, n 9, 1 uM): 98.82%
Toxicity Data, Average, Mean (cells (nuclei count); Average of Exp 1-3, n 9, 5 uM): 99.54%
Toxicity Data, Average, Mean (cells (nuclei count); Average of Exp 1-3, n 9, 10 uM): 108.52%
Toxicity Data, Average, Mean (cells (nuclei count); Average of Exp 1-3, n 9, 25 uM): 116.28%
Toxicity Data, Average, Mean (cells (nuclei count); Average of Exp 1-3, n 9, 50 uM): 84.14%
Toxicity Data, nuclei count relative to DMSO controls (cells (nuclei count); Exp 1 (SMW454), 1 uM): 105.2% and 108.8% and 106.3%
Toxicity Data, nuclei count relative to DMSO controls (cells (nuclei count); Exp 1 (SMW454), 5 uM): 102.9% and 104.5% and 102.2%
Toxicity Data, nuclei count relative to DMSO controls (cells (nuclei count); Exp 1 (SMW454), 10 uM): 107.4% and 106.9% and 105.6%
Toxicity Data, nuclei count relative to DMSO controls (cells (nuclei count); Exp 1 (SMW454), 25 uM): 94.7% and 94.9% and 95.9%
Toxicity Data, nuclei count relative to DMSO controls (cells (nuclei count); Exp 1 (SMW454), 50 uM): 83.8% and 87.1% and 84.9%
Toxicity Data, nuclei count relative to DMSO controls (cells (nuclei count); Exp 2 (SMW466), 1 uM): 93.5% and 94.5% and 96.6%
Toxicity Data, nuclei count relative to DMSO controls (cells (nuclei count); Exp 2 (SMW466), 5 uM): 107.1% and 94.1% and 106.7%
Toxicity Data, nuclei count relative to DMSO controls (cells (nuclei count); Exp 2 (SMW466), 10 uM): 107.3% and 102.2% and 104.0%
Toxicity Data, nuclei count relative to DMSO controls (cells (nuclei count); Exp 2 (SMW466), 25 uM): 130.6% and 124.7% and 133.0%
Toxicity Data, nuclei count relative to DMSO controls (cells (nuclei count); Exp 2 (SMW466), 50 uM): 88.5% and 77.1% and 78.5%
Toxicity Data, nuclei count relative to DMSO controls (cells (nuclei count); Exp 3 (SMW480), 1 uM): 89.7% and 102.3% and 92.4%
Toxicity Data, nuclei count relative to DMSO controls (cells (nuclei count); Exp 3 (SMW480), 5 uM): 88.1% and 95.7% and 94.5%
Toxicity Data, nuclei count relative to DMSO controls (cells (nuclei count); Exp 3 (SMW480), 10 uM): 124.6% and 98.4% and 120.2%
Toxicity Data, nuclei count relative to DMSO controls (cells (nuclei count); Exp 3 (SMW480), 25 uM): 120.8% and 130.3% and 121.5%
Toxicity Data, nuclei count relative to DMSO controls (cells (nuclei count); Exp 3 (SMW480), 50 uM): 72.1% and 98.8% and 86.4%
Relative cell count to DMSO controls, Average (for correlation analysis) (cells (nuclei count)): 101.46

Cc1ccc(CN(CCN(C)C)Cc2ccc(C)s2)o1 [SILCS7]
Percentage Inhibition Average 1 μM (SARS2): 6.07%
Screening data (Relative infection to DMSO controls) Average 1 μM (SARS2): 93.93
Percentage Inhibition Average 5 μM (SARS2): 7.19%
Screening data (Relative infection to DMSO controls) Average 5 μM (SARS2): 92.81
Percentage Inhibition Average 10 μM (SARS2): 42.29%
Screening data (Relative infection to DMSO controls) Average 10 μM (SARS2): 57.71
Percentage Inhibition Average 25 μM (SARS2): 58.04%
Screening data (Relative infection to DMSO controls) Average 25 μM (SARS2): 41.96
Percentage Inhibition Average 50 μM (SARS2): 68.91%
Screening data (Relative infection to DMSO controls) Average 50 μM (SARS2): 31.09
Average (relative infection to DMSO over the 5 tested concentrations) (SARS2): 63.50
Relative cell count to DMSO controls, Average 1 μM (cells (nuclei count)): 110.82
Relative cell count to DMSO controls, Average 5 μM (cells (nuclei count)): 103.66
Relative cell count to DMSO controls, Average 10 μM (cells (nuclei count)): 106.58
Relative cell count to DMSO controls, Average 25 μM (cells (nuclei count)): 103.49
Relative cell count to DMSO controls, Average 50 μM (cells (nuclei count)): 73.73
Toxicity Data, Average, Mean (relative to DMSO control) (cells (nuclei count); Average of Exp 1-3, 1 uM): 110.82%
Toxicity Data, Average, Mean (relative to DMSO control) (cells (nuclei count); Average of Exp 1-3, 5 uM): 103.66%
Toxicity Data, Average, Mean (relative to DMSO control) (cells (nuclei count); Average of Exp 1-3, 10 uM): 106.58%
Toxicity Data, Average, Mean (relative to DMSO control) (cells (nuclei count); Average of Exp 1-3, 25 uM): 103.49%
Toxicity Data, Average, Mean (relative to DMSO control) (cells (nuclei count); Average of Exp 1-3, 50 uM): 73.73%
Relative cell count to DMSO controls, Average (for correlation analysis) (cells (nuclei count)): 99.66

O=C(NC1CCCCCC1)c1cn[nH]c1-c1ccc2c(c1)OCCO2 [UMB22_16]
SARS2 antiviral activity (SARS2): improved activity than ring open analogs

CC1=C(C(=O)OC2CCCCCCC2)C(c2ccc3c(c2)OCO3)NC(=O)N1 (centres unmarked) [UMB22_5]
SARS2 antiviral activity (SARS2): improved activity than ring open analogs
